According to patent publication US11000033B2, “Ketone or oxime compound, and herbicide” (NISSAN CHEMICAL CORPORATION, priority 2014, dated 2021):

Tests used:
Format in all cases: in vivo
Stellaria media = assay: Test Example 4: herbicidal effect by soil treatment (symbol P); conditions: application herbicide amount 320 g/ha
Outline: (§1)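 Seeds were sown in sterilized diluvial soil, covered with about 1.5 cm of soil, and the soil surface was sprayed with a water-diluted emulsion of the compound at a predetermined rate. Plants grew in a greenhouse at 25° C. to 30° C.; effects were scored visually 3 weeks after application.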

Apera spica-venti = assay: Test Example 5: herbicidal effect by foliage application, plastic box (symbol L); conditions: 320 g/ha, 3 weeks after application
Outline: (§2)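 Effect is rated 3 weeks after a foliar spray of water-diluted emulsion concentrate at a predetermined herbicide amount. Plants had grown 14 days in a 25° C. to 30° C. greenhouse from seed in sterilized diluvial soil.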

corn [1] = assay: Test Example 4: effect on crop by soil treatment (symbol c); conditions: application herbicide amount 320 g/ha
Outline: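 Grown at 25° C. to 30° C. in a greenhouse, the crops came from seed sown spot-wise in sterilized diluvial soil under roughly 1.5 cm of covering soil.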

wheat [2] = assay: Test Example 4: effect on crop by soil treatment (symbol e); conditions: application herbicide amount 320 g/ha
Outline: (§3)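 Seeds were sown in spots on sterilized diluvial soil in a plastic box and covered with about 1.5 cm of soil. Plants were then grown in a greenhouse at 25° C. to 30° C.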

[3] = test system: Echinochloa crus-galli var. crus-galli; assay: Test Example 4: herbicidal effect by soil treatment (symbol H); conditions: application herbicide amount 320 g/ha
Outline: as §1

Digitaria ciliaris = assay: Test Example 5: herbicidal effect by foliage application, plastic box (symbol F); conditions: 320 g/ha, 3 weeks after application
Outline: as §2

rapeseed = assay: Test Example 5: effect on crop by foliage application, plastic box (symbol g); conditions: 320 g/ha, 3 weeks after application
Outline: (§4)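 Greenhouse test at 25° C. to 30° C. Seeds of crops and weeds were spot-sown in boxes of sterilized diluvial soil under roughly 1.5 cm soil cover, then grown for foliage treatment.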

Setaria viridis = assay: Test Example 4: herbicidal effect by soil treatment (symbol G); conditions: application herbicide amount 320 g/ha
Outline: as §1

wheat [4] = assay: Test Example 5: effect on crop by foliage application, plastic box (symbol e); conditions: 320 g/ha, 3 weeks after application
Outline: as §4

rice = assay: Test Example 4: effect on crop by soil treatment (symbol b); conditions: application herbicide amount 320 g/ha
Outline: as §3

soybean = assay: Test Example 5: effect on crop by foliage application, plastic box (symbol d); conditions: 320 g/ha, 3 weeks after application
Outline: as §4

Scirpus juncoides = assay: Test Example 1: herbicidal activity, application before weed generation in submerged conditions (symbol B); conditions: application herbicide amount 320 g/ha
Outline: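 Compound emulsion was diluted to a set herbicide amount and applied to the water surface on the sowing day, into submerged (4 cm) alluvial-soil pots sown with mixed weed seeds and transplanted 2.5-leaf rice. Pots were held in a 25–30 °C greenhouse, and weeds were scored 0–5 by herbicidal ratio after 3 weeks.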

Veronica persica = assay: Test Example 5: herbicidal effect by foliage application, plastic box (symbol R); conditions: 320 g/ha, 3 weeks after application
Outline: as §2

Lolium multiflorum Lam. = assay: Test Example 4: herbicidal effect by soil treatment (symbol K); conditions: application herbicide amount 320 g/ha
Outline: as §1

[5] = test system: Echinochloa crus-galli var. crus-galli; assay: Test Example 3: herbicidal effect by foliage application, Wagner pot (symbol H); conditions: application herbicide amount 320 g/ha
Outline: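 Foliar spray of a water-diluted emulsion at a predetermined herbicide amount, applied to 14-day-old plants. Seedlings were raised in flooded alluvial soil (0.1–0.5 cm water) at 25–30 °C in a greenhouse. Injury was rated after 3 weeks against fixed criteria.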

corn [6] = assay: Test Example 5: effect on crop by foliage application, plastic box (symbol c); conditions: 320 g/ha, 3 weeks after application
Outline: as §4

Alopecurus myosuroides = assay: Test Example 4: herbicidal effect by soil treatment (symbol J); conditions: application herbicide amount 320 g/ha
Outline: as §1

CON=C(C)CC1CC(OC(=O)COc2ccccc2OC)=C(c2c(C)cc(C)cc2C)C1=O (centres unmarked) [1-067]
P (Stellaria media) herbicidal effect grade (Stellaria media): 0 (Herbicidal ratio of 5% or lower (almost no effect))
L: Apera spica-venti, herbicidal effect grade (Apera spica-venti): 5 (Herbicidal ratio of 90% or more (almost completely withered))
c (corn) effect on crop grade (corn [1]): 3 (Herbicidal ratio of 40% or higher and lower than 70%)
e (wheat) effect on crop grade (wheat [2]): 5 (Herbicidal ratio of 90% or more (almost completely withered))
H (Echinochloa crus-galli var. crus-galli) herbicidal effect grade [3]: 5 (Herbicidal ratio of 90% or more (almost completely withered))
F: Digitaria ciliaris, herbicidal effect grade (Digitaria ciliaris): 5 (Herbicidal ratio of 90% or more (almost completely withered))
g: rapeseed, effect on crop grade (rapeseed): 4 (Herbicidal ratio of 70% or higher and lower than 90%)
G (Setaria viridis) herbicidal effect grade (Setaria viridis): 5 (Herbicidal ratio of 90% or more (almost completely withered))
e: wheat, effect on crop grade (wheat [4]): 5 (Herbicidal ratio of 90% or more (almost completely withered))
b (directly sowed rice plant) effect on crop grade (rice): 5 (Herbicidal ratio of 90% or more (almost completely withered))
d: soybean, effect on crop grade (soybean): 4 (Herbicidal ratio of 70% or higher and lower than 90%)
Herbicidal effect grade, B: Scirpus juncoides (Scirpus juncoides): 5 (Herbicidal ratio of 90% or more (almost completely withered))
R: Veronica persica, herbicidal effect grade (Veronica persica): 3 (Herbicidal ratio of 40% or higher and lower than 70%)
K (Lolium multiflorum Lam.) herbicidal effect grade (Lolium multiflorum Lam.): 5 (Herbicidal ratio of 90% or more (almost completely withered))
herbicidal effect on H (Echinochloa crus-galli var. crus-galli), grade 0-5 [5]: 5 (Herbicidal ratio of 90% or more (almost completely withered))
c: corn, effect on crop grade (corn [6]): 5 (Herbicidal ratio of 90% or more (almost completely withered))
J (Alopecurus myosuroides) herbicidal effect grade (Alopecurus myosuroides): 5 (Herbicidal ratio of 90% or more (almost completely withered))
